Results on one molecule are retold here after patent publication US6596715B1, “Protease inhibitors” (SmithKline Beecham Corporation, priority 1999, dated 2003).

A short description of this data set: Chiral / configurational stability at the carbon alpha to the ketone. It counts as physicochemical.

As to `[2H]C1(NC(=O)[C@H](CC(C)C)NC(=O)c2ccc3ccccc3n2)CCCN(S(=O)(=O)c2cccc[n+]2[O-])C([2H])([2H])C1=O` (stereo partly drawn) [Formula (I), quinoline-2-carboxylic acid {(S)-3-methyl-1-[(2,2,4-trideuterio)-3-oxo-1-(1-oxy-pyridine-2-sulfonyl)-azepan-4-ylcarbamoyl]-butyl}amide], the “configurational stability at the carbon center alpha to the ketone” value (compared to the corresponding 5 and 6 membered ring compounds) was “configurationally more stable”. Under “compared to the protonated isomer”, the chiral stability entry is recorded as “superior chiral stability”.
